ChEMBL document CHEMBL1154906, “Additional insights on the bastadins: isolation of analogues from the sponge Ianthella cf. reticulata and exploration of the oxime configurations” (J Nat Prod, 2010)
Calls of active or inactive are those of the source. The calls are words filed in the database; no cut-off is given here.

Legend:
HCT-116 = test: Cytotoxicity against human HCT116 cells after 7 days by methylene blue staining; assay type: functional, cell-based
[1] = system: Trypanosoma brucei brucei; test: Antitrypanosomal activity against Trypanosoma brucei brucei 221 after 48 hrs by ATP-bioluminescence assay; assay type: functional, organism-based; conditions: for IC50: Trypanosoma brucei, 221, 48 h

Structure (SMILES) | Activity (HCT-116) | Activity [1] | further results
O=C1NCCc2ccc(c(Br)c2)Oc2cc(cc(Br)c2O)CCNC(=O)/C(=N/O)Cc2cc(Br)c(O)c(c2)Oc2c(Br)cc(cc2Br)C/C1=N/O | inactive |  | 
O=C1NCCc2ccc(c(Br)c2)Oc2cc(cc(Br)c2O)CCNC(=O)/C(=N/O)Cc2cc(Br)c(O)c(c2)Oc2c(Br)cc(cc2Br)C/C1=N\O [BASTADIN 19] | inactive |  | IC50 [1]: 1310 nM
O=C1NCCc2ccc(c(Br)c2)Oc2cc(ccc2O)CCNC(=O)/C(=N/O)Cc2cc(Br)c(O)c(c2)Oc2c(Br)cc(cc2Br)C/C1=N\O [BASTADIN 13] |  |  | IC50 [1]: 1770 nM
O=C(NCCc1ccc(O)c(Br)c1)/C(Cc1cc(Br)c(O)c(-c2cc(C/C(=N/O)C(=O)NCCc3ccc(O)c(Br)c3)cc(Br)c2O)c1)=N\O | inactive |  | 
O=C1NCCc2cc(Br)c(O)c(c2)Oc2ccc(cc2Br)CCNC(=O)/C(=N\O)Cc2cc(Br)c(O)c(c2)Oc2c(Br)cc(cc2Br)C/C1=N/O | inactive | inactive | 
O=C(NCCc1ccc(O)c(Br)c1)/C(Cc1cc(Br)c(O)c(Oc2c(Br)cc(C/C(=N\O)C(=O)NCCc3ccc(O)c(Br)c3)cc2Br)c1)=N\O |  | inactive | 
O=C1NCCc2cc(Br)c(O)c(c2)Oc2ccc(cc2Br)[C@H](O)CNC(=O)/C(=N/O)Cc2cc(Br)c(O)c(c2)Oc2c(Br)cc(cc2Br)C/C1=N\O |  | inactive | 
O=C1N/C=C/c2ccc(c(Br)c2)Oc2cc(cc(Br)c2O)CCNC(=O)/C(=N/O)Cc2cc(Br)c(c(Br)c2)Oc2cc(cc(Br)c2O)C/C1=N\O [BASTADIN 4] |  | inactive | IC50 (HCT-116; HCT-116, 168 h): 1280 nM
O=C1NCCc2cc(Br)c(O)c(c2)Oc2ccc(cc2)CCNC(=O)/C(=N/O)Cc2cc(Br)c(O)c(c2)Oc2c(Br)cc(cc2Br)C/C1=N\O |  | inactive | 
O=C(NCCc1ccc(O)c(Br)c1)/C(Cc1cc(Br)c2c(c1)-c1cc(C/C(=N\O)C(=O)NCCc3ccc(O)c(Br)c3)cc(Br)c1OCO2)=N\O | inactive |  | 
O=C1NCCc2cc(Br)c(O)c(c2)Oc2c(Br)cc(cc2Br)CCNC(=O)/C(=N/O)Cc2cc(Br)c(O)c(c2)Oc2c(Br)cc(cc2Br)C/C1=N\O | inactive | inactive | 
O=C1N/C=C/c2ccc(c(Br)c2)Oc2cc(cc(Br)c2O)CCNC(=O)/C(=N/O)Cc2ccc(c(Br)c2)Oc2cc(cc(Br)c2O)C/C1=N\O |  | inactive | 
